Laboratory results reported in PubChem BioAssay (NCI).
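How tested: cells in 96-well plates exposed to compound for 48 hours at five concentrations. Definition used: TGI = concentration required for complete inhibition of growth.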

What was measured:
Test in all cases: NCI tumour cell line growth inhibition, 48 h
[1] = test system: A498 renal
[2] = test system: HCT-116 colon
[3] = test system: HL-60(TB) leukemia
[4] = test system: KM12 colon
[5] = test system: MCF7 breast
[6] = test system: NCI-H460 lung
[7] = test system: SK-OV-3 ovarian
[8] = test system: SN12C renal
[9] = test system: T-47D breast
[10] = test system: UACC-257 melanoma

In the case of `COc1nc2ncc([C@@H](OC(C)=O)[C@@H](COC(C)=O)OC(C)=O)nc2c(=O)n1C`, the TGI [1] is reported as over 100 µM, the TGI [2] is reported as over 100 µM and the TGI [3] is reported as 87.8 µM. For the same compound, the TGI [4] was over 100 µM, the TGI [5] was over 100 µM and the TGI [6] was over 100 µM. For the same compound, the TGI [7] was over 100 µM, the TGI [8] was over 100 µM and the TGI [9] was over 100 µM. For the same compound, the TGI [10] was over 100 µM.

`CCCSc1ccc2[nH]c(N3C(=O)/C(=C/c4ccc(O)c(OC)c4)N=C3c3ccccc3)cc2c1` gave a TGI [1] of 93 µM, a TGI [2] of over 100 µM and a TGI [3] of 11.6 µM. It also gave a TGI [4] of over 100 µM, a TGI [5] of over 100 µM and a TGI [6] of 10.1 µM. For the same compound, the TGI [7] was 76.3 µM, the TGI [8] was 50.4 µM and the TGI [9] was over 100 µM. The TGI [10] was 51.8 µM.

`CN(C)CC1CCC/C(=C\c2ccc(Cl)c(Cl)c2)C1=O` (stereo not given) was tested, and the TGI [1] was 26.9 µM, the TGI [2] was 3.96 µM and the TGI [3] was 4.06 µM. It also gave a TGI [4] of 4.04 µM, a TGI [5] of 5.44 µM and a TGI [6] of 28 µM. The TGI [7] was 20.3 µM, the TGI [8] was 8.79 µM and the TGI [9] was 5.71 µM. For the same compound, the TGI [10] was 21.7 µM.

Work on `CCCCOc1ccc(/C=C/C2=[N+](CCO)CCO2)cc1` yielded a TGI [1] of over 100 µM, a TGI [2] of over 100 µM and a TGI [3] of 40.2 µM. It also gave a TGI [4] of over 100 µM, a TGI [5] of over 100 µM and a TGI [6] of over 100 µM. It also gave a TGI [7] of over 100 µM, a TGI [8] of over 100 µM and a TGI [9] of 82.8 µM. It also gave a TGI [10] of over 100 µM.

`C/C(=N/NC(=S)N1CCCCCC1)c1cccc(/C(C)=N\NC(=S)N2CCCCCC2)n1` gave a TGI [1] of 2.85 µM, a TGI [2] of 3.48 µM and a TGI [3] of 5.26 µM. For the same compound, the TGI [4] was 3.16 µM, the TGI [5] was 3.46 µM and the TGI [6] was 6.78 µM. For the same compound, the TGI [7] was 4.1 µM, the TGI [8] was 4.57 µM and the TGI [9] was 5.95 µM. It also gave a TGI [10] of 3.45 µM.
